Legend:
Sirt1 [1] = conditions: 0.5 mM for leucine and 5 μM for HMB; previously shown; cited from earlier work
[2] = tested on: LDL receptor knockout (LDLRKO) mice; assay: Example 7: plasma total cholesterol, cholesterol esters and triglycerides in LDLRKO mice on western diet; assay type: in vivo; conditions: four weeks
Protocol: (§1) The mice were provided free access to an atherogenic western diet (WD) containing 0.21% cholesterol (by weight) and 40% calories from fat and water for 4 weeks prior to treatment. […] The treatments were administered for eight weeks continuously.
Blood samples of the mice in all groups were obtained from tails of the mice at following four and eight weeks of administration. The serum/plasma levels of triglyceride, total cholesterol and cholesterol esters were measured. Following treatment, food was removed for four hours and the animals were euthanized.
Blood was collected into EDTA-coated tubes to analyze plasma lipid and cholesterol profiles. Plasma total cholesterol (TC, Pointe Scientific, Canton, Mich.), free cholesterol (FC, Wako, Richmond, Va.) and triglyceride (TG, Wako, Richmond, Va.) concentrations were measured using enzymatic assays according to manufacturer's instructions. Cholesterol ester (CE) was calculated as the difference between TC and FC.

C. elegans = assay: Lifespan in C. elegans; assay type: in vivo, Caenorhabditis elegans; conditions: leucine 0.5 mM, nicotinic acid 10 nM; basal conditions
Protocol: Eggs were hatched on a starved plate overnight. […] To study lifespan, 50 young adult worms were placed on NGM agar plates seeded with E. coli strain OP-50 (=day 1 of study). All treatments were added with the indicated concentrations to E. coli the agar plates. […] The worms were maintained at 20° C. throughout the duration of the study. Worms were transferred to new plates daily to eliminate progeny. […] The study was continued until the last animal was dead. Data were analyzed via Kaplan-Meier survival curves using Prism 6 (GraphPad Software) and statistical significance was determined by the Log-rank (Mantel-Cox) test.

[3] = tested on: LDL receptor knockout (LDLRKO) mice; assay: Example 7: aortic macrophage infiltration (CD68 positive area) in LDLRKO mice; assay type: in vivo; conditions: eight weeks
Protocol: as §1
To assess macrophage infiltration, Sections of aortic sinus were immuno-stained with rat monoclonal antibody against macrophage-specific CD68 (Clone FA11, 1:75, AbD Serotec, Raleigh, N.C.) followed by staining with alkaline phosphatase-conjugated mouse anti-rat (for CD68, 1:50) secondary antibodies (Jackson ImmunoResearch laboratories, West Grove, Pa.). Control slides contain no primary antibody. The CD68-positive areas were analyzed using Image-Pro Plus software (Media Cybemetics, Bethesda, Md.).

AMPK [4] = conditions: 0.5 mM for leucine and 5 μM for HMB; previously shown; cited from earlier work
[5] = tested on: LDL receptor knockout (LDLRKO) mice; assay: Example 7: atherosclerotic lesion area and Oil Red O positive area in LDLRKO mice; assay type: in vivo; conditions: eight weeks
Protocol: as §1
To assess atherosclerosis, the circulatory system was perfused following euthanasia with phosphate-buffered saline (PBS) before removing the heart and aorta. The upper one-third of the heart was dissected and embedded in Optimal Cutting Temperature Compound (Sakura Tissue-Tek, Torrance, Calif.), frozen, and stored at −80° C. Blocks were serially cut at 8 μm intervals and stained with hematoxylin and 0.5% Oil Red O (Sigma-Aldrich) to evaluate aortic sinus atherosclerotic intimal area. Atherosclerotic lesion area and Oil Red O positive area were quantified using Image-Pro Plus software (Media Cybemetics, Bethesda, Md.). Whole aorta (from sinotubular junction to iliac bifurcate) was dissected and fixed in 10% formalin, and the adventitia was cleaned. Aortas were opened along the longitudinal axis and pinned onto black silicon elastomer (Rubber-Cal, Santa Ana, Calif.) for the quantification of atherosclerotic lesion area. The percentage of total aortic surface covered with atherosclerotic lesions was quantified by Image-Pro Plus software (Media Cybemetics, Bethesda, Md.) and used to determine the total lesion area.

[6] = oral dosing of about 3,000 mg; cited from earlier work
[7] = tested on: Patients pre-diagnosed with hyperlipidemia; conditions: NA alone 3000 mg = group (e); NA 50 mg + Leu 1135 mg; groups (a)-(d) as
Protocol: Patients that are pre-diagnosed with hyperlipidemia are admitted for the randomized and double blind study. […] The treatments are administered orally twice a day, for 60 days continuously.
Blood samples of the patients in all groups are obtained from at day 0, 30 and 60 after the administration. The serum/plasma levels of triglyceride, cholesterol, LDL and HDL are measured. Cutaneous vasodilation is measured by laser-Doppler flowmeter and the discomfort level described by the patients.

[8] = tested on: LDL receptor knockout (LDLRKO) mice; conditions: NA alone 10 g/kg diet = group (e); NA 250 mg + Leu 24 g/kg diet; groups (a)-(d) as
Protocol: All chemicals are purchased from Sigma.
The serum/plasma levels of triglyceride, cholesterol, LDL and HDL are measured. Cutaneous vasodilation is measured by laser-Doppler flowmeter.

Sirt1 [9] = tested on: Sirt1
Protocol: C2C12 mouse myoblasts (American Type Culture Collection) were plated at a density of 8000 cells/cm^2 (10 cm^2 dish) and grown in Dulbecco's modified eagle's medium (DMEM) containing 10% fetal bovine serum (FBS), and antibiotics (growth medium) at 37° C. in 5% CO2. For differentiation of C2C12 cells, cells were grown to 100% confluence, transferred to differentiation medium (DMEM with 2% horse serum and 1% penicillin-streptomycin), and fed with fresh differentiation medium every day until myotubes were fully formed (3 days).
(§2) Total 35 μg of protein from the cell lysate was resolved on 10% Tris/HCL polyacrylamide gels (Criterion precast gel, Bio-Rad Laboratories, Hercules, Calif.), transferred to PVDF membranes, incubated in blocking buffer (3% BSA in TBS), incubated with primary antibody, washed and incubated with secondary horseradish peroxidase-conjugated antibody.

AMPK [10] = tested on: AMPK
Protocol: 3T3-L1 preadipocytes (American Type Culture Collection) were plated at a density of 8000 cells/cm2 (10 cm2 dish) and grown in Dulbecco's modified eagle's medium (DMEM) containing 10% fetal bovine serum (FBS), and antibiotics (growth medium) at 37° C. in 5% CO2. […] Preadipocytes were maintained in this differentiation medium for 3 days and subsequently cultured in growth medium. Cultures were re-fed every 2-3 days to allow >90% cells to reach fully differentiation before conducting chemical treatment.
as §2, with “Western blotting was performed with antibodies against AMPK and Phospho-AMPKα (Thr172) obtained from Cell Signaling (Danvers, Mass.). […] Total” for “Total”, “30” for “35”, “antibody (P-AMPK),” for “antibody,”

[11] = leucine 24 g/kg diet alone, or with nicotinic acid 50 or 250 mg/kg diet, compared with NA 1,000 mg/kg diet
[12] = leucine 24 g/kg diet alone, or with nicotinic acid 50 mg/kg diet, compared with NA 1,000 mg/kg diet

CC(C)C[C@H](N)C(=O)O [leucine]
therapeutic effect on these variables when administered alone (Sirt1 [1]): no therapeutic effect
effect on plasma cholesterol esters [2, 11]: no independent effect
effect on plasma total cholesterol [2, 11]: no independent effect
effect on lifespan (C. elegans): no independent effect
effect on aortic macrophage infiltration [3, 12]: significant independent effect on reducing macrophage infiltration
therapeutic effect on these variables when administered alone (AMPK [4]): no therapeutic effect
effect on lesion (plaque) area [5, 12]: exerted an independent effect on plaque area

NC(=O)c1ccc[n+]([C@@H]2O[C@H](CO)[C@@H](O)[C@H]2O)c1 [nicotinamide riboside]
circulating level of nicotinic acid or nicotinamide riboside [6]: about 10 μM

O=C(O)c1cccnc1 [nicotinic acid]
cutaneous vasodilation and patient complaints [7]: significant higher cutaneous vasodilation and more complaints from the patients
circulating level of nicotinic acid or nicotinamide riboside [6]: about 10 μM
cutaneous vasodilation [8]: significant higher cutaneous vasodilation
decrease in plasma total cholesterol ([2]; nicotinic acid 1,000 mg/kg diet added to western diet, p<0.01): 20%
decrease in plasma cholesterol esters ([2]; nicotinic acid 1,000 mg/kg diet, CE calculated as TC minus FC, p<0.002): 28%
decrease in plasma triglycerides ([2]; nicotinic acid 1,000 mg/kg diet, p<0.01): 32%
effect on Sirt1 levels (Sirt1 [9]; C2C12 myotubes, 24 hours, nicotinic acid 10 nM alone or with 0.5 mM leucine): did not have a significant effect
concentrations of nicotinic acid alone found to exert no effect (Sirt1 [9]; dose-response study, C2C12 cells): < 100 nM
effect on lifespan (C. elegans): no independent effect
decrease in aortic macrophage infiltration ([3]; nicotinic acid 1,000 mg/kg diet, % CD68 positive area): ~50%
decrease in atherosclerotic lesion size ([5]; nicotinic acid 1,000 mg/kg diet, relative to western diet alone): ~50%
AMPK activation (P-AMPK/AMPK) (AMPK [10]; differentiated 3T3-L1 adipocytes, 24 hours, nicotinic acid 10 nM, leucine 0.5 mM, resveratrol 200 nM): no significant effect
concentrations of nicotinic acid alone found to exert no effect (AMPK [10]; dose-response study, 3T3-L1 cells): < 100 nM

Reference: patent US9895357B2, “Compositions, methods and kits for reducing lipid levels” (NuSirt Sciences, Inc., priority 2013, dated 2018)
